Earlier results in patent US7879357B2 (priority 2003, dated 2011).

Conditions: skin of the retro-auricular region and the scrotum

uptake rate through the skin compared to the lower arm: up to 40 ×
Compound: C[C@]12CCC(=O)C=C1CC[C@@H]1[C@@H]2[C@@H](O)C[C@@]2(C)[C@H]1CC[C@]2(O)C(=O)CO [hydrocortisone]
